Source: US20230111853A1, “COMPOUNDS MODULATING PROTEIN RECRUITMENT AND/OR DEGRADATION” (Orionis Biosciences, Inc., priority 2019, published 2023)

What was measured:
Type in all cases: cell-based
[1] = target: T1, IKZF1 (isoform 7) recruitment to CRBN (Homo sapiens, UniProt Q96SW2); assay: Recruitment Assay (MAPPIT-like): IKZF1 recruitment to CRBN; details: HEK293T cells; pSEL-CRBN+pMG1-IKZF1(isoform 7); luciferase 24 hours after treatment; read-out: EC50_IKZF1
T1 construct: Full size proteins were fused for each of the target proteins tested, except in the case of IKZF1 where isoform 7 was used; expressed in transfected cells; host or cells: HEK293T
T1 sequence (Q96SW2 whole entry, the tested form may be a part, canonical isoform): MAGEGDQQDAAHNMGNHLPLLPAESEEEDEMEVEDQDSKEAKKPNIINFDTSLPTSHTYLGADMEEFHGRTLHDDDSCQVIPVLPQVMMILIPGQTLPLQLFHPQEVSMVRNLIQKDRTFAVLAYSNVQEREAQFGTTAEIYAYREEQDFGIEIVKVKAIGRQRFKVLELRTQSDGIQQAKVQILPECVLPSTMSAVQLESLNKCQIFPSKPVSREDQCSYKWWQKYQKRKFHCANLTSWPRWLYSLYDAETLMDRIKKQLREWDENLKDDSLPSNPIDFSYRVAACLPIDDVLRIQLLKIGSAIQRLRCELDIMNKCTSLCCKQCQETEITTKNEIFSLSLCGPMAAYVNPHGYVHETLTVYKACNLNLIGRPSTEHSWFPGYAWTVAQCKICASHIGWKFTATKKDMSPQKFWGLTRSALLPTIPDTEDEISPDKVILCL
T1 sequence (Q13422 1-477 isoform Q13422-7 partner): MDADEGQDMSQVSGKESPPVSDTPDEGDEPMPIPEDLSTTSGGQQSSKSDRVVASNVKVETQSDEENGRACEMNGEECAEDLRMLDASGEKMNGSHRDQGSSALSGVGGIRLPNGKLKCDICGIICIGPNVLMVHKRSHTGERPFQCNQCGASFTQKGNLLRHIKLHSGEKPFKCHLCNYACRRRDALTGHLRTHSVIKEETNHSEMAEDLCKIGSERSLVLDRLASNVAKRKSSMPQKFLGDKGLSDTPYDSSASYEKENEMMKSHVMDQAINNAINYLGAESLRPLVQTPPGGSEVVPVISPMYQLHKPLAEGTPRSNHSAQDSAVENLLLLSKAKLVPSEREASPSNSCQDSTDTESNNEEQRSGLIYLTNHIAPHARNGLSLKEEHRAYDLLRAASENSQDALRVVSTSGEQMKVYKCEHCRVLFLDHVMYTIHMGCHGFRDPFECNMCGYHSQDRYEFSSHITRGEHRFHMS
T1 sequence (Q16531 whole entry partner, the tested form may be a part, canonical isoform): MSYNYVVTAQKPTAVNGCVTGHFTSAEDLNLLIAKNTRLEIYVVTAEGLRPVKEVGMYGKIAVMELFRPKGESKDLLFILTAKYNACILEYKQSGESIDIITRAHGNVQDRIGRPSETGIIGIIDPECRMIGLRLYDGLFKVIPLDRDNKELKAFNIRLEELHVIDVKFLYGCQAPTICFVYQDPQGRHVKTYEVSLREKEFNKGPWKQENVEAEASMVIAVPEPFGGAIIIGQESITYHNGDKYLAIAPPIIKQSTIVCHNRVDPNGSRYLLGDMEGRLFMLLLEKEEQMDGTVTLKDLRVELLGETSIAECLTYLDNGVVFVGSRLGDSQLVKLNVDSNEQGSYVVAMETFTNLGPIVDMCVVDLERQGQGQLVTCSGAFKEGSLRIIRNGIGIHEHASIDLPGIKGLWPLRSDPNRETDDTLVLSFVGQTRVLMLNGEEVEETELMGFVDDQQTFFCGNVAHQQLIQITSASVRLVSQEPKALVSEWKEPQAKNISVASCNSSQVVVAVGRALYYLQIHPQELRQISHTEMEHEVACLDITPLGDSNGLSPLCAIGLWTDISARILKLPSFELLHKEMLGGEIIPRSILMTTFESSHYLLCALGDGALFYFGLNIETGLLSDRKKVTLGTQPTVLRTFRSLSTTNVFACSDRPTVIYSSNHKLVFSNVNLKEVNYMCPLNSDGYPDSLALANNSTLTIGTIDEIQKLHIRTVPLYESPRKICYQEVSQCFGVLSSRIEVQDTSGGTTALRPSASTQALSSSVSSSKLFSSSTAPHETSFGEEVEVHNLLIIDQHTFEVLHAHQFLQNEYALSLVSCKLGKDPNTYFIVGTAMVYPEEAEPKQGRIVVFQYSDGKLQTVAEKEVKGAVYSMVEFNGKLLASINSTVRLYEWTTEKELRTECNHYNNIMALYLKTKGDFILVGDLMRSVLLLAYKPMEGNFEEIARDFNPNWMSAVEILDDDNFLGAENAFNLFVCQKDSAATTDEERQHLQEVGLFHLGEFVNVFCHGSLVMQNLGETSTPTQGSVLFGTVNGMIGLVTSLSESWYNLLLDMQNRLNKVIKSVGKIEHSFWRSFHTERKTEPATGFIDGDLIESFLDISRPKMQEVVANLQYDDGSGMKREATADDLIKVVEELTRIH
Procedure: (§1) In this experimental set-up, cells were transfected with a construct encoding a CRBN-fusion protein and another one encoding a substrate-fusion protein. Test compound activity was assessed with increasing concentrations of test compounds (dose-response studies) to monitor the ability to promote CRBN-ligand-induced protein interaction.
(§2) Full size proteins were fused for each of the target proteins tested, except in the case of IKZF1 where isoform 7 was used. For the study, the following were used: IKZF1 recruitment: pSEL-CRBN+pMG1-IKZF1(isoform 7); ASS1 recruitment: pSEL-CRBN+pMG1-ASS1. SALL4 recruitment: pSEL-SALL4+pMG1-CRBN. […] Luciferase activity was measured 24 hours after test compound treatment using the Luciferase Assay System kit (PROMEGA, Madison, Wis.) with an Ensight plate reader (PERKIN ELMER LIFE SCIENCES, Waltham, Mass.). Data points depicted fold induction of the average luciferase activity of triplicate samples from EPO+test compound treated cells versus EPO only treated cells. Error bars represent standard deviations. Curves were fit using 4-parameter nonlinear regression in […] PRISM software.

ASS1 recruitment to CRBN = target: T2, ASS1 recruitment to CRBN (Homo sapiens, UniProt Q96SW2); assay: Recruitment Assay (MAPPIT-like): ASS1 recruitment to CRBN; details: HEK293T cells; pSEL-CRBN+pMG1-ASS1; luciferase 24 hours after treatment; read-out: EC50_ASS1
T2 construct: Full size proteins were fused for each of the target proteins tested, except in the case of IKZF1 where isoform 7 was used; expressed in transfected cells; host or cells: HEK293T
T2 sequence (Q96SW2 whole entry, the tested form may be a part, canonical isoform): as the sequence (Q96SW2 whole entry, the tested form may be a part, canonical isoform) above
T2 sequence (P00966 whole entry partner, the tested form may be a part, canonical isoform): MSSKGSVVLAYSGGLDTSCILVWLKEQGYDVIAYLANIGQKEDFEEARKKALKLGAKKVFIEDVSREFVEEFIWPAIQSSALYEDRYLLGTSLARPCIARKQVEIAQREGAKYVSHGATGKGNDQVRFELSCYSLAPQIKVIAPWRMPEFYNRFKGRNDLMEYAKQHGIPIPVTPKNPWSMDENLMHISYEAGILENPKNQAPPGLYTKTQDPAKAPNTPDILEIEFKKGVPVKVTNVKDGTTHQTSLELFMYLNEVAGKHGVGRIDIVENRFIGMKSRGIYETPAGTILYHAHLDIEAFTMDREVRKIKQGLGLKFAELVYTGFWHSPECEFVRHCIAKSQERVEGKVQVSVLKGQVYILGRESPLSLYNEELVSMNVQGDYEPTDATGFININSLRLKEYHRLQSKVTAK
T2 sequence (Q16531 whole entry partner, the tested form may be a part, canonical isoform): as the sequence (Q16531 whole entry partner, the tested form may be a part, canonical isoform) above
Procedure: as §1, §2

[2] = tested on: IKZF1, ASS1 and SALL4 recruitment to CRBN; assay: Recruitment assessment: recruitment of any tested substrate from among IKZF1, ASS1 and SALL4; details: any tested substrate at any tested compound concentration
[3] = target: T3, SALL4 recruitment to CRBN (Homo sapiens, UniProt Q96SW2); assay: Recruitment Assay (MAPPIT-like): SALL4 recruitment to CRBN; details: HEK293T cells; pSEL-SALL4+pMG1-CRBN; luciferase 24 hours after treatment; read-out: EC50_SALL4
T3 construct: Full size proteins were fused for each of the target proteins tested, except in the case of IKZF1 where isoform 7 was used; expressed in transfected cells; host or cells: HEK293T
T3 sequence (Q96SW2 whole entry, the tested form may be a part, canonical isoform): as the sequence (Q96SW2 whole entry, the tested form may be a part, canonical isoform) above
T3 sequence (Q9UJQ4 whole entry partner, the tested form may be a part, canonical isoform): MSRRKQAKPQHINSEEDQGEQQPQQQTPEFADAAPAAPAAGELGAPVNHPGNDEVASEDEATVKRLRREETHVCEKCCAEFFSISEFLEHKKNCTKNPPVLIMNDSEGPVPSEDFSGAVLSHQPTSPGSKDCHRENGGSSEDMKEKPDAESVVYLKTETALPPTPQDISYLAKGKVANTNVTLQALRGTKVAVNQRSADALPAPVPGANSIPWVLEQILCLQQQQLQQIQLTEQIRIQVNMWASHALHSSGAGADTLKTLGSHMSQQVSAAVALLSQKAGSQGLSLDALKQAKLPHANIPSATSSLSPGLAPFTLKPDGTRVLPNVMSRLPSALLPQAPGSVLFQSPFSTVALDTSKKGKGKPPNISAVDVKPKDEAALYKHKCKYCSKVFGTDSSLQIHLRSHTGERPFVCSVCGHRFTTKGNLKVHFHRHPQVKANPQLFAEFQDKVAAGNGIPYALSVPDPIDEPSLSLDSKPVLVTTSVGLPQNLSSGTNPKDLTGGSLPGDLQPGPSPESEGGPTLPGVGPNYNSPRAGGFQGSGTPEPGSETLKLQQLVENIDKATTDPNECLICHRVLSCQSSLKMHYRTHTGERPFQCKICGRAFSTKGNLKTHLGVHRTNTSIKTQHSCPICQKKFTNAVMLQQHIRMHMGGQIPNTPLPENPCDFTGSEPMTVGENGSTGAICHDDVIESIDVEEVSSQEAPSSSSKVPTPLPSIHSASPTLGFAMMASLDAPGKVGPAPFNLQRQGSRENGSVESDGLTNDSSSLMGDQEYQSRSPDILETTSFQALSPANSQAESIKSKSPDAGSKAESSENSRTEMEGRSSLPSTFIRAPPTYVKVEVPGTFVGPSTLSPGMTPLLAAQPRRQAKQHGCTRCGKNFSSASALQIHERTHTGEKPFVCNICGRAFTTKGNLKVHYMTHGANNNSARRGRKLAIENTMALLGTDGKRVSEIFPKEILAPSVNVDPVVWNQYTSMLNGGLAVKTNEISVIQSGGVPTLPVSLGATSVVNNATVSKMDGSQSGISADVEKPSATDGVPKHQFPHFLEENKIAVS
T3 sequence (Q16531 whole entry partner, the tested form may be a part, canonical isoform): as the sequence (Q16531 whole entry partner, the tested form may be a part, canonical isoform) above
Procedure: as §1, §2

| EC50 [1] [nM] | EC50 (ASS1 recruitment to CRBN) [nM] | EC50 [3] [nM] | Compound | Recruitment Assessment [2] |
| --- | --- | --- | --- | --- |
| 2880 | 8550 | 402 | Cc1cccc2nnn(C3CCC(=O)NC3=O)c(=O)c12 (stereo not shown) [C13247, 3-(5-methyl-4-oxo-1,2,3-benzotriazin-3-yl)piperidine-2,6-dione] | TRUE |
| 494 |  | 631 | CS(=O)(=O)Nc1cccc2c1CN(C1CCC(=O)NC1=O)C2=O (stereo not shown) [C22548, N-[2-(2,6-dioxo-3-piperidyl)-1-oxo-isoindolin-4-yl] methanesulfonamide] | TRUE |
| 58.7 | 259 | < 13.7 | O=C1CCC(N2Cc3c(Cl)cccc3C2=O)C(=O)N1 (stereo not shown) [C24031, 3-(4-chloro-1-oxo-isoindolin-2-yl)piperidine-2,6-dione] | TRUE |
| 1410 |  |  | O=C1CCCC(N2Cc3c(cccc3[N+](=O)[O-])C2=O)C(=O)N1 (stereo not shown) [C29737, 3-(4-nitro-1-oxo-isoindolin-2-yl)azepane-2,7-dione] | TRUE |
| 2730 |  | 1700 | O=C1CCC(N2Cc3c(NC(=O)Nc4cccc5c4CN(C4CCC(=O)NC4=O)C5=O)cccc3C2=O)C(=O)N1 (stereo not shown) [C30231, 1,3-bis[2-(2,6-dioxo-3-piperidyl)-1-oxo-isoindolin-4-yl]urea] | TRUE |
|  | 1450 | 232 | O=C1CCC(N2Cc3cc(NCCNC(=O)Nc4ccccc4)ccc3C2=O)C(=O)N1 (stereo not shown) [C35751, 1-[2-[[2-(2,6-dioxo-3-piperidyl)-1-oxo-isoindolin-5-yl]amino]ethyl]-3-phenyl-urea] | TRUE |
| 1330 |  | 1080 | O=C1CCC(N2Cc3cc(NCC(=O)Nc4ccccc4)ccc3C2=O)C(=O)N1 (stereo not shown) [C35797, 2-[[2-(2,6-dioxo-3-piperidyl)-1-oxo-isoindolin-5-yl]amino]-N-phenyl-acetamide] | TRUE |
|  |  | 641 | NC(=O)c1cccc(NC(=O)CNc2ccc3c(c2)CN(C2CCC(=O)NC2=O)C3=O)c1 (stereo not shown) [C35811, 3-[[2-[[2-(2,6-dioxo-3-piperidyl)-1-oxo-isoindolin-5-yl]amino]acetyl]amino]benzamide] | TRUE |
|  | 5560 | 588 | Cc1cccc2c(=O)n(C3CCC(=O)NC3=O)nnc12 (stereo not shown) [C35830, 3-(8-methyl-4-oxo-1,2,3-benzotriazin-3-yl)piperidine-2,6-dione] | TRUE |
| 1150 |  | 188 | O=C(CNc1ccc2c(c1)CN(C1CCC(=O)NC1=O)C2=O)NCc1ccccc1 (stereo not shown) [C35856] | TRUE |
| 17100 |  | 875 | N#CC1c2ccccc2C(=O)N1C1CCC(=O)NC1=O (stereo not shown) [C39453, 2-(2,6-dioxo-3-piperidyl)-3-oxo-isoindoline-1-carbonitrile] | TRUE |
| 784 |  |  | Nc1cccc2c1CN(C1CC(=O)NC1=O)C2=O (stereo not shown) [C47930, 3-(4-amino-1-oxo-isoindolin-2-yl)pyrrolidine-2,5-dione] | TRUE |
|  |  | 441 | O=C1CCC(N2Cc3ncccc3C2=O)C(=O)N1 (stereo not shown) [C47959, 3-(5-oxo-7H-pyrrolo[3,4-b]pyridin-6-yl)piperidine-2,6-dione] | TRUE |
|  |  | 518 | O=C(O)CNc1ccc2c(c1)CN(C1CCC(=O)NC1=O)C2=O (stereo not shown) [C47995, 2-[[2-(2,6-dioxo-3-piperidyl)-1-oxo-isoindolin-5-yl]amino]acetic acid] | TRUE |
|  |  | 2170 | O=C(O)CNc1cccc2c1C(=O)N(C1CCC(=O)NC1=O)C2 (stereo not shown) [C47998, 2-[[2-(2,6-dioxo-3-piperidyl)-3-oxo-isoindolin-4-yl]amino]acetic acid] | TRUE |
|  |  | 581 | N#Cc1cccc2c1CN(C1CCC(=O)NC1=O)C2=O (stereo not shown) [C48003, 2-(2,6-dioxo-3-piperidyl)-1-oxo-isoindoline-4-carbonitrile] | TRUE |
|  |  | 595 | N#Cc1ccc2c(c1)CN(C1CCC(=O)NC1=O)C2=O (stereo not shown) [C48005, 2-(2,6-dioxo-3-piperidyl)-1-oxo-isoindoline-5-carbonitrile] | TRUE |

| EC50 [1] [nM] | EC50 (ASS1 recruitment to CRBN) [nM] | EC50 [3] [nM] | Compound | Recruitment Assessment [2] |
| --- | --- | --- | --- | --- |
| 1620 |  | 430 | N#Cc1ccc2c(c1)C(=O)N(C1CCC(=O)NC1=O)C2 (stereo not shown) [C48007, 2-(2,6-dioxo-3-piperidyl)-3-oxo-isoindoline-5-carbonitrile] | TRUE |
|  |  | 122 | O=C1CCC(N2Cc3cc(-c4ccccc4)ccc3C2=O)C(=O)N1 (stereo not shown) [C48016, 3-(1-oxo-5-phenyl-isoindolin-2-yl)piperidine-2,6-dione] | TRUE |
|  |  | 395 | O=C1CCC(N2Cc3ccc(-c4ccccc4)cc3C2=O)C(=O)N1 (stereo not shown) [C48018, 3-(1-oxo-6-phenyl-isoindolin-2-yl)piperidine-2,6-dione] | TRUE |
|  |  | 1490 | O=C1CCC(N2C(=O)C3=C(C2=O)c2ccccc2CC3)C(=O)N1 (stereo not shown) [C64340, 2-(2,6-dioxo-3-piperidyl)-4,5-dihydrobenzo[e]isoindole-1,3-dione] | TRUE |
|  |  | 319 | O=C1CCC(N2Cc3cc4c(cc3C2=O)OCO4)C(=O)N1 (stereo not shown) [C68126, 3-(7-oxo-5H-[1,3]dioxolo[4,5-f]isoindol-6-yl)piperidine-2,6-dione] | TRUE |
|  | 1290 |  | O=C1CCC(N2Cc3cc(Nc4ncccn4)ccc3C2=O)C(=O)N1 (stereo not shown) [C80369, 3-[1-oxo-5-(pyrimidin-2-ylamino)isoindolin-2-yl]piperidine-2,6-dione] | TRUE |
|  |  | 559 | O=C1CCC(N2Cc3cc(Nc4ncc5[nH]cnc5n4)ccc3C2=O)C(=O)N1 (stereo not shown) [C80376, 3-[1-oxo-5-(7H-purin-2-ylamino)isoindolin-2-yl]piperidine-2,6-dione] | TRUE |
|  | 9420 | 387 | N#Cc1ccc(Nc2ccc3c(c2)CN(C2CCC(=O)NC2=O)C3=O)nn1 (stereo not shown) [C80378, 6-[[2-(2,6-dioxo-3-piperidyl)-1-oxo-isoindolin-5-yl]amino] pyridazine-3-carbonitrile] | TRUE |
| 1780 |  | 9.89 | O=C1CCC(N2Cc3cc(Nc4ncc5c(n4)COC5)ccc3C2=O)C(=O)N1 (stereo not shown) [C80380, 3-[5-(5,7-dihydrofuro[3,4-d]pyrimidin-2-ylamino)-1-oxo-isoindolin-2-yl]piperidine-2,6-dione] | TRUE |
|  |  | 152 | O=C1CCC(N2Cc3ccc(Nc4ncc5c(n4)COC5)cc3C2=O)C(=O)N1 (stereo not shown) [C80391, 3-[6-(5,7-dihydrofuro[3,4-d]pyrimidin-2-ylamino)-1-oxo-isoindolin-2-yl]piperidine-2,6-dione] | TRUE |
|  |  | 1380 | O=C1CCC(N2Cc3ccc(NC(=O)c4cnc5nccn5c4)cc3C2=O)C(=O)N1 (stereo not shown) [C80396, N-[2-(2,6-dioxo-3-piperidyl)-3-oxo-isoindolin-5-yl]imidazo[1,2-a] pyrimidine-6-carboxamide] | TRUE |
|  |  | 1010 | CC(Nc1ccc2c(c1)C(=O)N(C1CCC(=O)NC1=O)C2)C(=O)O (stereo not shown) [C84970, 2-[[2-(2,6-dioxo-3-piperidyl)-3-oxo-isoindolin-5-yl]amino] propanoic acid] | TRUE |
|  |  | 4820 | O=C1CCC(N2Cc3ccccc3C2)C(=O)N1 (stereo not shown) [C87699, 3-isoindolin-2-ylpiperidine-2.6-dione] | TRUE |
|  |  | 438 | O=C1CCC(N2C(=O)c3ccccc3C2O)C(=O)N1 (stereo not shown) [C89940, 3-(1-hydroxy-3-oxo-isoindolin-2-yl)piperidine-2,6-dione] | TRUE |
| 1290 |  | < 13.7 | CN(C)c1ccc2c(c1)CN(C1CCC(=O)NC1=O)C2=O (stereo not shown) [C98103, 3-[5-(dimethylamino)-1-oxo-isoindolin-2-yl]piperidine-2,6-dione] | TRUE |
| < 13.7 | 80.1 |  | Cc1ccc(NC(=O)NCc2ccc3c(c2)CN(C2CCC(=O)NC2=O)C3=O)cc1Cl (stereo not shown) [CC-885, 1-(3-chloro-4-methyl-phenyl)-3-[[2-(2,6-dioxo-3-piperidyl)-1-oxo-isoindolin-5-yl]methyl]urea, reference compound] | TRUE |
| 4680 |  | 801 | O=C(O)CN1CCN(Cc2ccc(COc3cccc4c3CN(C3CCC(=O)NC3=O)C4=O)cc2)CC1.O=CO (stereo not shown) [ZE26-0001, 2-[4-[[4-[[2-(2,6-dioxo-3-piperidyl)-1-oxo-isoindolin-4-yl]oxymethyl]phenyl]methyl]piperazin-1-yl]acetic acid; formic acid] | TRUE |
